Patent US9376492B2, “Treatment of cancer” (Asclepiumm Limited, priority 2009, dated 2016)
“Also recorded” adds a separate entry of the source.

How the values were obtained:
[1] = system: MDCK cells; assay: Blocking EMT assay (HGF/SF-induced EMT); assay type: cell-based; conditions: 2.5 ng/ml HGF/SF, 24 h
Description: Blocking EMT Assay: Antibodies or peptides were added to 10% sub-confluent MDCK cells cultured in standard medium with 2.5 ng/ml HGF/SF in 96-well plates for 24 h. EMT was induced by HGF/SF in MDCK cells without any antibody or peptide treatment. The effects of different antibodies and peptides in blocking EMT were investigated by adding different concentrations of them to 10% sub-confluent MDCK cells cultured in standard medium with 2.5 ng/ml HGF/SF.

[2] = system: human breast cancer MCF7 cells; assay: Cell invasion assay (Matrigel), MCF7; assay type: cell-based; conditions: human breast cancer MCF7 cells in Matrigel
Description: Cell Invasion Assay: Growth Factor-Reduced Matrigel™ Matrix (BD, Becton Dickinson Biosciences, Bedford, Mass., USA) was thawed in the fridge one day prior to its use. The Matrigel matrix was mixed by pre-cooled pipettes to homogeneity on ice. Four μl of the cell suspension (1×10^6 cells/ml) in standard medium without (Control) or with 1 μl different concentrations of antibody or peptide was mixed with 95 μl of Matrigel matrix in a cold Eppendorf tube. After thorough mixing using cooled pipettes, 30 μl of the cells in the Matrigel mixture was added to 48-well plates. The plates were incubated at 37° C. in a CO2 incubator for 1 h to polymerize the droplet mixtures. 250 μl of standard medium was added to cover the cell/Matrigel droplet and incubated for several days. Blindly-selected cell invasion images were recorded in four areas within a cell/Matrigel droplet by a Nikon 4500 Coolpix digital camera under the microscope.

Row | Sequence | inhibition of EMT [1] | inhibition of cell invasion ability [2]
1 | EELSAAHTLV (listed as Homo sapiens) [Peptide 7] | significantly blocked; also recorded: significantly inhibited | significantly inhibited
2 | KINATDADEPNTLNSKISYR (listed as Homo sapiens) [Peptide 4] | significantly blocked; also recorded: significantly inhibited | significantly inhibited
